Data set [1] concerns MCF7 cultures. The settings on record: MCF7 in 24-well plate, 5% O2 incubator, 5 mM sodium azide; rose from 3% O2 to the incubator setpoint; PBS-spiked cultures returned to 3% O2.
Method: (§1) MCF7 were seeded overnight in a 24-well plate and incubated at 5% O2 for 24 hours. […] Cells were incubated with 1:1000 live/dead dye (LIVE/DEAD Fixable Kit, Thermo Fisher Scientific) for 1 hour. Flow cytometry (Attune NxT, Thermo Fisher Scientific) of live singlets was used to determine the cell viability.
In data set [2] the test system is MCF7. The settings on record: 5 mM NaN3, 6 hours, 5% O2.
Method: as §1

With `[N-]=[N+]=[N-]` [sodium azide], the “pericellular O2 tension” value in data set [1] turned out to be 5 % O2. The MCF7 cell viability entry in data set [2] is “no significant change”.

The values are drawn from patent US20240352396A1, “PE[…]-C[…] CULTURE INCUBATOR” (Northeastern University, priority 2023, published 2024).
